Experimental findings from ChEMBL document CHEMBL1129898, “An exceptionally potent analog of sandramycin” (Bioorg Med Chem Lett, 1997) are described below.

What all share (assay type): functional, cell-based
The subject of one assay is BT-549. The assay can be described thus: The compound was tested in vitro for cytotoxic activity against BT-549 cell line (human breast carcinoma).
The test system of another assay is PC-3. In words: The compound was tested in vitro for cytotoxic activity against PC-3 cell line (human prostate carcinoma).
A further assay has as its system SiHa. The assay can be described thus: The compound was tested in vitro for cytotoxic activity against SIHA cell line (human cervix carcinoma).
For another assay, the system named is H322. The assay can be described thus: The compound was tested in vitro for cytotoxic activity against H 322 cell line (human lung adenocarcinoma). The conditions noted are these: NCI-H322.
Assay [1] in a line: The compound was tested in vitro for cytotoxic activity against M24-MET cell line (human metastatic melanoma). As to conditions: M24met.
A further assay deals with L1210. The assay can be described thus: The compound was tested in vitro for cytotoxic activity against L1210 cell line (mouse leukemia).
For the next assay, the system named is MOLT-4. In words: The compound was tested in vitro for cytotoxic activity against Molt-4 cell line (human T-cell leukemia).
A short description of assay [2]: The compound was tested in vitro for cytotoxic activity against UCLA-P3 cell line (human lung adenocarcinoma). The conditions noted are these: UCLA P-3.
In the next assay the test system is 786-0. The assay can be described thus: The compound was tested in vitro for cytotoxic activity against 786-O cell line (human perirenal carcinoma).
For another assay, the system named is B16. The assay can be described thus: The compound was tested in vitro for cytotoxic activity against B-16 cell line (mouse melanoma).
The subject of another assay is HT-29. The assay can be described thus: The compound was tested in vitro for cytotoxic activity against HT-29 cell line (human colon adenocarcinoma).
Another assay relates to MCF7. In words: The compound was tested in vitro for cytotoxic activity against MCF-7 cell line (human breast carcinoma).
In another assay the test system is OVCAR-3. In words: The compound was tested in vitro for cytotoxic activity against OVCAR-3 cell line (human ovarian carcinoma).
For another assay, the system named is SK-MEL-28. In words: The compound was tested in vitro for cytotoxic activity against SK-MEL 28 cell line (human melanoma).
In the next assay the test system is HL-60. The assay can be described thus: The compound was tested in vitro for cytotoxic activity against HL-60 cell line (human promyelomic leukemia).

The IC50 is the concentration at which inhibition is half-maximal. A high value points to lower potency. Consider `CC(C)[C@H]1C(=O)OC[C@@H](NC(=O)c2ccc3ccccc3n2)C(=O)N2CCCC[C@H]2C(=O)NCC(=O)N(C)CC(=O)N(C)[C@@H](C(C)C)C(=O)OC[C@@H](NC(=O)c2ccc3ccccc3n2)C(=O)N2CCCC[C@H]2C(=O)NCC(=O)N(C)CC(=O)N1C`, for which the IC50 with BT-549 amounted to 0.01 nM; in the assay on PC-3, 0.001 nM; in the assay with SiHa, 0.001 nM; in the assay on H322 it was 10 nM; in assay [1], 0.04 nM; in the assay on L1210, 0.2 nM. In addition, the half-maximal inhibitory concentration (IC50) was determined as 3 nM in the assay with MOLT-4; 0.002 nM in assay [2]; 0.01 nM in the assay with 786-0; 0.06 nM in the assay with B16; 0.01 nM in the assay on HT-29; 0.04 nM in the assay with MCF7. The figures for the IC50 in the assay with OVCAR-3, with SK-MEL-28 and in the assay on HL-60 were 1 nM, 0.001 nM and 0.001 nM, respectively.

In the case of `CC(C)[C@H]1C(=O)OC[C@@H](NC(=O)c2nc3ccccc3cc2O)C(=O)N2CCCC[C@H]2C(=O)NCC(=O)N(C)CC(=O)N(C)[C@@H](C(C)C)C(=O)OC[C@@H](NC(=O)c2nc3ccccc3cc2O)C(=O)N2CCCC[C@H]2C(=O)NCC(=O)N(C)CC(=O)N1C`, the IC50 in the assay with BT-549 turned out to be 1 nM; in the assay on PC-3, 0.2 nM; with SiHa, 0.3 nM; with H322, 20 nM; in assay [1], 0.4 nM; in the assay on L1210, 0.02 nM. The IC50 stood at 0.7 nM in the assay on MOLT-4; 10 nM in assay [2]; 8 nM in the assay with 786-0; 0.4 nM with B16; 1 nM with HT-29; 300 nM in the assay with MCF7. For the same molecule, the results for the IC50 with OVCAR-3, in the assay on SK-MEL-28 and in the assay on HL-60 were 4 nM, 1 nM and 80 nM, respectively.
